# According to article PMC12802961 (Journal of Antimicrobial Chemotherapy, 2025):
# “And” between values parts separate entries of the source, which are not always exact repeats. Identical values can stand only once.
# What was measured:
# [1] = tested on: two ESBL-producing Enterobacterales and one AmpC- and one VIM-producing P. aeruginosa isolates; assay: Checkerboard broth microdilution MIC, all four strains together; assay type: cell-based
# Source text: Four previously well-characterized cefepime-resistant isolates, namely one ESBL-producing E. coli, one ESBL-producing K. pneumoniae and two P. aeruginosa (one VIM- and one AmpC constitutively -producing), were used.
# [2] = Single-dose plasma pharmacokinetics, s.c., infected neutropenic mice
# Description: All animal procedures were carried out in the Animal Facility for Medical and Scientific Purposes of the University General Hospital Attikon (EL 25 BIO 014), Athens, Greece. […] Outbred female CD-1 mice, obtained by the Hellenic Pasteur Institute, Greece, and Charles River Laboratories Models and Services, Germany, were used at the age of 7–8 weeks, weighing 20–25 g. The animals were allowed to acclimatize for at least 5 days upon arrival and were housed under standard conditions with water and food supplied ad libitum. […] Infection was induced (Day 0) by intramuscular injection of 0.05 mL bacterial inoculum of approximately 10^5–10^6 cfu/thigh.
# The dose was administered s.c. (0.1 mL) 2 h after infection (t = 0 h). Blood samples were collected in 1 mL K3EDTA tubes through orbital sinus bleeding under isoflurane anaesthesia. Animals were immediately euthanized through cervical dislocation and blood samples taken at timepoints 0, 0.08, 0.25, 0.5, 0.75, 1, 1.5, 2, 3, 4, 6, and 8 h after single dose injection. Blood samples were centrifuged immediately after collection in a pre-cooled centrifuge, and plasma was stored at −80°C. For each timepoint two animals were euthanized in order to have duplicates for each condition.
# The Cmax values were calculated from raw data and the AUCs were calculated using the trapezoidal rule. […] Equations used in the program were the classical polyexponential equations Ci(t) = PolyExp(i, n, t), where i = number of the compartments, n = number of doses and t = time from last dose (http://www.boomer.org/c/p4/c19/c19.pdf). The %fT > Ct was then determined using a bisectional rootfinder for intersections between simulated curve and concentration, and calculating the difference between intersection values. Free drug concentrations were used in all calculations.
# For taniborbactam, a population pharmacokinetic model was developed using nonlinear mixed-effects modelling (NONMEM). The analysis was performed on the natural logarithm of the concentrations using the FOCE method with INTERACTION. All mice were assumed to weigh 1kg, resulting in PK parameters corresponding to a per kg base. […] Tools used to evaluate and visualize the model were RStudio (v0.98.1049), R (v3.1.2), XPose (v4.5.3) and PsN (v4.6.0), all with the graphical interface Pirana (v2.9.0).
# To determine the structural pharmacokinetic model 1-, 2- and 3-compartment models were tested. Pharmacokinetic parameters were estimated in terms of central and peripheral volume of distribution (Vc and Vp), clearance (CL), and intercompartmental clearance (Q). Addition of interindividual variability (IPV), described using an exponential eta model, was evaluated for each pharmacokinetic parameter. The covariance between values for IPV was estimated using a […] matrix. Residual variability between observed and predicted plasma concentrations was described using an additional error model for logarithmically transformed data. The minimum value of objective function (OFV) was used as a criterion for model selection. […] Model adequacy was further evaluated by using various residual plots (‘goodness-of-fit’ plots) and values of random effects in variances. In the second step relationships between pharmacokinetic parameters and potential covariates were investigated. […] Dose covariates were modelled by using an exponential model, place of infection was modelled proportionally. Criteria for the inclusion of covariates in the model were the OFV, results of graphical evaluation of the parameter-covariate relationship and the decrease in parameter variability.
# Three procedures were used to validate the final model. As an internal validation method, a bootstrap resampling method was used. Bootstrap datasets (n=1000) were generated by sampling randomly from the original dataset with replacement. Parameters were estimated for each of the replicate datasets using the developed model.
# [3] = tested on: β-lactamase–producing Enterobacterales and Pseudomonas aeruginosa; assay: Neutropenic murine thigh infection model, all isolates together; assay type: in vivo
# Description: […]. […] […]. All dosing regimens were performed in at least two animals per dosing regimen.
# At t = 0 h, 2 h after infection, two mice were humanely euthanized to determine the initial number of cfu/thigh just before treatment. All other animals were euthanized at t = 24 h unless the welfare of the animals indicated earlier termination, following animal welfare regulations. Thighs were taken and moved to a pre-cooled 10 mL plastic tube (Transport Tube, Omnilabo, NL) containing 2 mL PBS (NaCl 8.00 g/L, Na2HPO4 * 2H2O 1.44 g/L, KH2PO4 0.26 g/L, pH 7.2–7.4). Subsequently, thighs were homogenized using the Ultra-Turrax homogenizer (IKA Labortechnik, Germany). For each thigh 10-fold dilution series were prepared and 3 × 10 µL per dilution were plated (Chromagar, bioMérieux, NL). The following day, colonies were counted and the number of cfu/thigh was calculated. The drug effect was then determined as the difference between the log10cfu/thigh values at t = 24 h and t = 0 h (mean value of two mice) expressed as Δlog10cfu, i.e. positive result for growth, zero for static effect and negative for reduction of inoculum (killing).
# . […] Free drug concentrations were used in all calculations. […]
# [4] = human simulated regimen of cefepime 2 g q8h as 2 h infusion; cited from earlier work
# E. coli 52 = assay: Neutropenic murine thigh infection model; assay type: in vivo, Escherichia coli
# Description: All dosing regimens were performed in at least two animals per dosing regimen.
# At t = 0 h, 2 h after infection, two mice were humanely euthanized to determine the initial number of cfu/thigh just before treatment. […] Subsequently, thighs were homogenized using the Ultra-Turrax homogenizer (IKA Labortechnik, Germany). For each thigh 10-fold dilution series were prepared and 3 × 10 µL per dilution were plated (Chromagar, bioMérieux, NL). The following day, colonies were counted and the number of cfu/thigh was calculated.
# Free drug concentrations were used in all calculations.
# [5] = tested on: AmpC constitutively-producing P. aeruginosa; settings: cited from earlier work
# [6] = in vivo
# [7] = cefepime monotherapy q2h, extrapolated
# [8] = cefepime monotherapy, extrapolated
# [9] = taniborbactam, two-compartment model
# [10] = Ct = taniborbactam concentration where reversal of cefepime resistance was found in vitro
# [11] = + cefepime q2h 4 mg/kg, Ct 0.015 mg/L
# [12] = + cefepime q2h 4 mg/kg, Ct 0.03 mg/L
# [13] = + cefepime q2h 4 mg/kg, Ct 0.06 mg/L
# [14] = + cefepime q2h 4 mg/kg, Ct 0.125 mg/L
# [15] = + cefepime q2h 4 mg/kg, Ct 0.25 mg/L
# [16] = + cefepime q2h 4 mg/kg, Ct 0.5 mg/L
# [17] = + cefepime q2h 4 mg/kg, Ct 1 mg/L
# [18] = + cefepime q2h 4 mg/kg, Ct 2 mg/L
# [19] = + cefepime q2h 4 mg/kg, Ct 4 mg/L
# [20] = taniborbactam q2h + cefepime q2h 4 mg/kg
smiles,measurement,setting,value
"CO/N=C(\C(=O)N[C@@H]1C(=O)N2C(C(=O)[O-])=C(C[N+]3(C)CCCC3)CS[C@H]12)c1csc(N)n1 [cefepime, Cefepime]","Cefepime MIC in the presence of 4 mg/L taniborbactam, all strains",[1]; +taniborbactam 4 mg/L,0.06 to 4 µg/mL
same,MIC,"[1]; Pseudomonas aeruginosa, read-out: Cefepime MIC, all strains, cefepime alone",16 to 256 µg/mL
same,"Cefepime MIC, all strains",[1]; cefepime alone,> 8 µg/mL
same,absorbance rate Ka,"[2]; cefepime, one-compartment model, serum/plasma, s.c., infected mice",15 h⁻¹
same,Effect of cefepime alone,[3]; against Enterobacterales and AmpC-producing P. aeruginosa,marginally reached stasis
same,fAUC0-24,[4],~787.8 µg·h/mL
same,1 log10 kill: %ƒT > MIC,E. coli 52; [7],(53.9) %
same,"1 log10 kill: Total daily dose, mg/kg",E. coli 52; [7],(5237.2) mg/kg
same,Stasis: %ƒT > MIC,E. coli 52; [7],(36.5) %
same,"Stasis: Total daily dose, mg/kg","E. coli 52; cefepime monotherapy q2h s.c. 24 h, extrapolated, Emax model",(1857.2) mg/kg
same,"1 log10 kill: q2h dose, mg/kg",E. coli 52; [8],(436.4) mg/kg
same,"Stasis: q2h dose, mg/kg",E. coli 52; [8],(154.8) mg/kg
same,Cefepime %fT > potMIC,"E. coli 52; cefepime q2h 4 mg/kg, potMIC 0.06 mg/L (with 4 mg/L taniborbactam)",80.70%
"NCCN[C@H]1CC[C@H](CC(=O)N[C@H]2Cc3cccc(C(=O)O)c3OB2O)CC1 [taniborbactam, Taniborbactam]","Absorption rate (h-1), Bootstrap",[2]; 772 successful bootstrap runs,20 h⁻¹
same,"Central volume of distribution (L/Kg), Bootstrap median (95-percentile range)",[2]; 772 successful bootstrap runs,0.63 (0.58-0.68) L/Kg
same,"Clearance (L/h/Kg), Bootstrap median (95-percentile range)",[2]; 772 successful bootstrap runs,1.49 (1.23-1.57) L/h/Kg
same,"IPV (%) on clearance, Bootstrap median (95-percentile range)",[2]; 772 successful bootstrap runs,14 (8-19) %
same,"IPV (%) on intercompartmental clearance, Bootstrap median (95-percentile range)",[2]; 772 successful bootstrap runs,59 (40-77) %
same,"Intercompartmental clearance (L/h), Bootstrap median (95-percentile range)",[2]; 772 successful bootstrap runs,0.11 (0.08-0.35) L/h
same,"Peripheral volume of distribution (L/Kg), Bootstrap median (95-percentile range)",[2]; 772 successful bootstrap runs,0.94 (0.46-13.0) L/Kg
same,t1/2a,"[2]; central compartment, estimated",17.6 min
same,"IPV (%) on clearance, Estimation, value (RSE)",[2]; interindividual variability of CL,14.2 (14%)
same,"IPV (%) on intercompartmental clearance, Estimation, value (RSE)",[2]; interindividual variability of Q,60.7 (13%)
same,t1/2b,"[2]; peripheral compartment, estimated",45 min
same,"Central volume of distribution (L/Kg), Estimation, value (RSE)",[2]; population PK model (NONMEM),0.628 (4%) L/Kg
same,"Clearance (L/h/Kg), Estimation, value (RSE)",[2]; population PK model (NONMEM),1.49 (3%) L/h/Kg
same,"Peripheral volume of distribution (L/Kg), Estimation, value (RSE)",[2]; population PK model (NONMEM),0.926 (1%) L/Kg
same,"Absorption rate (h-1), Estimation","[2]; population PK model (NONMEM), fixed",20 (fixed) h-1
same,"Intercompartmental clearance (L/h), Estimation, value (RSE)","[2]; population PK model (NONMEM), per kg",0.109 (10%) L/h
same,Vc,[2]; [9],0.628 L/kg
same,volume of peripheral compartment Vp,[2]; [9],0.926 L/kg
same,Ka,"[2]; taniborbactam, two-compartment model, fixed value",20 h⁻¹
same,%fT > Ct of taniborbactam associated with 1 log10 kill,[3]; [10],60%–100%
same,%fT > Ct of taniborbactam associated with stasis,[3]; [10],40%–50%
same,Effect of taniborbactam on cefepime's static effect,"[3]; all isolates, combined with cefepime",restored cefepime’s static effect against all isolates
same,Taniborbactam TDDs at which cefepime regained its static effect,"[3]; all isolates, with marginally ineffective doses of cefepime",3.2 to 105 mg/kg
same,Taniborbactam TDDs at which cefepime regained its 1 log10 kill effect,[3]; all strains except K. pneumoniae,26–293 mg/kg
same,q2h regimens more effective than q8h regimens,[3]; taniborbactam dose fractionation with cefepime q2h,> 10 fold
same,Reduction of cefepime MICs (fold dilution),[5],2 fold
same,fT > Ct 8 mg/L,[6],100%
same,1 log kill: Taniborbactam %ƒT > Ct 0.015 mg/L,E. coli 52; [11],100%
same,Stasis: Taniborbactam %ƒT > Ct 0.015 mg/L,E. coli 52; [11],70.24%
same,1 log kill: Taniborbactam %ƒT > Ct 0.03 mg/L,E. coli 52; [12],100%
same,Stasis: Taniborbactam %ƒT > Ct 0.03 mg/L,E. coli 52; [12],53.44%
same,1 log kill: Taniborbactam %ƒT > Ct 0.06 mg/L,E. coli 52; [13],99.7%
same,Stasis: Taniborbactam %ƒT > Ct 0.06 mg/L,E. coli 52; [13],36.6% and 36.55%
same,1 log kill: Taniborbactam %ƒT > Ct 0.125 mg/L,E. coli 52; [14],82.8% and 82.82%
same,Stasis: Taniborbactam %ƒT > Ct 0.125 mg/L,E. coli 52; [14],19.7% and 19.66%
same,1 log kill: Taniborbactam %ƒT > Ct 0.25 mg/L,E. coli 52; [15],65.92%
same,Stasis: Taniborbactam %ƒT > Ct 0.25 mg/L,E. coli 52; [15],2.74%
same,1 log kill: Taniborbactam %ƒT > Ct 0.5 mg/L,E. coli 52; [16],49.3%
same,Stasis: Taniborbactam %ƒT > Ct 0.5 mg/L,E. coli 52; [16],0%
same,1 log kill: Taniborbactam %ƒT > Ct 1 mg/L,E. coli 52; [17],32.14%
same,Stasis: Taniborbactam %ƒT > Ct 1 mg/L,E. coli 52; [17],0%
same,1 log kill: Taniborbactam %ƒT > Ct 2 mg/L,E. coli 52; [18],15.24%
same,Stasis: Taniborbactam %ƒT > Ct 2 mg/L,E. coli 52; [18],0%
same,1 log kill: Taniborbactam %ƒT > Ct 4 mg/L,E. coli 52; [19],0%
same,Stasis: Taniborbactam %ƒT > Ct 4 mg/L,E. coli 52; [19],0%
same,"1 log kill: Taniborbactam total daily dose, mg/kg",E. coli 52; [20],41.8 mg/kg
same,Stasis: Taniborbactam total daily dose,E. coli 52; [20],3.20 mg/kg
